Source: ChEMBL document CHEMBL6092216, “Development of α-Helical Antimicrobial Peptides with Imperfect Amphipathicity for Superior Activity and Selectivity” (J Med Chem, 2024)
The source made the active and inactive calls. The calls are words filed in the database; no cut-off is given here. Where a SMILES comes first, the peptide text is derived from it. [ ]: non-standard residue; d: D form. Hmpa(2S,3S) = CC[C@H](C)[C@H](O)C(=O)O

Experiments:
[1] = test system: Staphylococcus aureus; assay: Antibacterial activity against Staphylococcus aureus ATCC 6538 assessed as inhibition of bacterial growth by tube microdilution assay; assay type: functional
[2] = test system: Acinetobacter baumannii; assay: Antibacterial activity against Acinetobacter baumannii ATCC 19606 assessed as inhibition of bacterial growth by tube microdilution assay; assay type: functional
[3] = test system: Erythrocyte; assay: Induction of hemolysis in mouse red blood cells at 1.56 to 100 ug/ml incubated for 1 hr; assay type: toxicity, cell-based; details: dose 1.56-100 µg/ml
[4] = test system: HEK-293T; assay: Cytotoxicity against HEK293T cells assessed as effect on cell viability at 3.13 to 400 ug/ml incubated for 24 hrs by CCK-8 assay; assay type: toxicity, cell-based; details: human, dose 3.13-400 µg/ml
[5] = test system: HaCaT; assay: Cytotoxicity against human HaCaT cells assessed as effect on cell viability at 3.13 to 400 ug/ml incubated for 24 hrs by CCK-8 assay; assay type: toxicity, cell-based; details: dose 3.13-400 µg/ml
[6] = test system: Staphylococcus aureus; assay: Ratio of MIC for bactericidal activity against Staphylococcus aureus ATCC 6538 measured after 35 passages to MIC for bactericidal activity against Staphylococcus aureus ATCC 6538 measured after short period of drug exposure; assay type: functional
[7] = test system: Staphylococcus aureus; assay: Antibacterial activity against Staphylococcus aureus ATCC 6538 infected in BALB/c mouse assessed as inhibition of bacterial colonization on wounded skin at 0.5 mg/ml applied on skin and measured after 2 hrs; assay type: functional, organism-based
[8] = test system: Staphylococcus aureus; assay: Induction of bacterial cell rupture in Staphylococcus aureus ATCC 6538 assessed as cell disruption at 5XMIC measured after 30 mins by transmission electron microscopy; assay type: functional, organism-based
[9] = test system: Staphylococcus aureus; assay: Bactericidal activity against Staphylococcus aureus ATCC 6538 assessed as elimination of bacterial cells at 5X to 10X MIC by killing kinetic assay; assay type: functional, organism-based
[10] = test system: Cell membrane; assay: Induction of membrane permeabilization in Staphylococcus aureus ATCC 6538 assessed as increase in fluorescence intensity at 5XMIC measured for 90 mins by propidium iodide staining based fluorescence analysis; assay type: subcellular
[11] = test system: Staphylococcus aureus; assay: Induction of bacterial cell rupture in Staphylococcus aureus ATCC 6538 assessed as cell disruption at 5XMIC measured after 30 mins by scanning electron microscopy; assay type: functional, organism-based

`CC[C@H](C)[C@H](NC(=O)CN)C(=O)N[C@@H](CCCCN)C(=O)N[C@@H](CCCCN)C(=O)NCC(=O)O[C@H](C(=O)N[C@@H](CCCCN)C(=O)N[C@@H](CCCCN)C(=O)N[C@@H](CC(C)C)C(=O)N[C@@H](CC(C)C)C(=O)O)[C@@H](C)CC` (H-GIKKG[Hmpa(2S,3S)]KKLL-OH) was tested, and the MIC [1] was > 200 µg/mL and the MIC [2] was > 200 µg/mL.

In the case of `CC[C@H](C)[C@H](N)C(=O)N[C@@H](CCCCN)C(=O)N[C@@H](CCCCN)C(=O)NCC(=O)O[C@H](C(=O)N[C@@H](CCCCN)C(=O)N[C@@H](CCCCN)C(=O)N[C@@H](CC(C)C)C(=O)N[C@@H](CC(C)C)C(=O)O)[C@@H](C)CC` (H-IKKG[Hmpa(2S,3S)]KKLL-OH), the MIC [1] is reported as > 200 µg/mL, the MIC [2] is reported as > 200 µg/mL and the Activity [3] is reported as “Non-toxic”. The Activity [4] was “Non-toxic” and the Activity [5] was “Non-toxic”.

`CN[C@H](CC(C)C)C(=O)N[C@H]1C(=O)N[C@@H](CC(N)=O)C(=O)N[C@H]2C(=O)N[C@H]3C(=O)N[C@H](C(=O)N[C@H](C(=O)O)c4cc(O)cc(O)c4-c4cc3ccc4O)[C@H](O)c3ccc(c(Cl)c3)Oc3cc2cc(c3O[C@@H]2O[C@H](CO)[C@@H](O)[C@H](O)[C@H]2O[C@H]2C[C@](C)(N)[C@H](O)[C@H](C)O2)Oc2ccc(cc2Cl)[C@H]1O` [VANCOMYCIN] was tested, and the Ratio [6] was 4, the Activity [7] was “Active” and the Activity [8] was “Active; Limited Cell Disruption With Most Cells Remain Intact And Unaffected”. For the same molecule, the Activity [9] was “Active; Slow Killing Rate”, the Activity [10] was “inactive” and the Activity [11] was “Active; Limited Cell Disruption With Most Cells Remain Intact And Unaffected”.

Work on H-FIKKVKKVKKAIKEGIKK-OH yielded an MIC [1] of 75 µg/mL and an MIC [2] of 37.5 µg/mL.

H-GIKKFIKKVKKVKKAIKE-OH was tested, and the MIC [1] was 75 µg/mL and the MIC [2] was 37.5 µg/mL.

H-IKKFIKKVKKVKKAIK-OH was tested, and the MIC [1] was 4.68 µg/mL, the MIC [2] was 4.68 µg/mL and the Activity [3] was “Non-toxic”. The Activity [4] was “Non-toxic” and the Activity [5] was “Non-toxic”.

In the case of H-IKKFIKKVKKVKKAIKEG-OH, the MIC [1] is reported as 75 µg/mL, the MIC [2] is reported as 37.5 µg/mL and the Activity [3] is reported as “Non-toxic”. The Activity [4] was “Non-toxic” and the Activity [5] was “Non-toxic”.

Molecule H-IKKVKKVKKAIKEGIKKG-OH has an MIC [1] of 75 µg/mL and an MIC [2] of 75 µg/mL.

H-KFIKKVKKVKKAIKEGIK-OH was tested, and the MIC [1] was 75 µg/mL and the MIC [2] was 37.5 µg/mL.

For H-KKFIKKVKKVKKAIKEGI-OH, the MIC [1] was 75 µg/mL and the MIC [2] was 37.5 µg/mL.

Work on H-RGIKKFIKKVKKVKKAIK-OH yielded an MIC [1] of 2.34 µg/mL and an MIC [2] of 2.34 µg/mL.

In the case of H-RRGIKKFIKKVKKVKKAIKEGIKKGIKKLL-OH, the MIC [1] is reported as 9.37 µg/mL and the MIC [2] is reported as 9.37 µg/mL.

For H-SGGGSNIAHGPGGRRHIA-OH, the MIC [1] was > 200 µg/mL and the MIC [2] was > 200 µg/mL.
